Results published in ChEMBL document CHEMBL1201862, “PubChem BioAssay data set” (2004).
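Compound exposure: 48 hours, 5 concentrations, 96-well plates. At the GI50, growth is halved.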 Activity calls are given as the source filed them. Cut-off read from the data, not from the text of the source: active = GI50 up to about 1.1 µM and inactive = higher.

Key:
Experiment in all cases: DTP human tumour cell line panel, 48 h
[1] = system: K562
[2] = system: LXFL 529
[3] = system: M14
[4] = system: SK-MEL-5
[5] = system: RXF 631
[6] = system: EKVX
[7] = system: HT-29
[8] = system: HCC 2998
[9] = system: OVCAR-8
[10] = system: DMS-273
[11] = system: OVCAR-3
[12] = system: SN12C
[13] = system: OVCAR-5
[14] = system: RPMI-8226
[15] = system: RXF 393
[16] = system: SF-268
[17] = system: ACHN
[18] = system: KM12
[19] = system: UACC-257
[20] = system: UO-31
[21] = system: SW-620
[22] = system: SNB-78
[23] = system: DLD-1
[24] = system: UACC-62
[25] = system: HOP-62
[26] = system: M19-MEL
[27] = system: HCT-15
[28] = system: DMS-114
[29] = system: NCI-H23
[30] = system: SK-MEL-2
[31] = system: Malme-3M
[32] = system: CAKI-1
[33] = system: OVCAR-4
[34] = system: CCRF-CEM
[35] = system: MOLT-4
[36] = system: NCI-H460
[37] = system: 786-0
[38] = system: HL-60
[39] = system: SNB-75
[40] = system: SK-MEL-28
[41] = system: HOP-92
[42] = system: A549
[43] = system: NCI-H522
[44] = system: TK-10
[45] = system: LOX IMVI
[46] = system: IGROV-1
[47] = system: SF-295
[48] = system: COLO 205
[49] = system: SK-OV-3
[50] = system: SNB-19
[51] = system: KM-20L2
[52] = system: A498
[53] = system: HCT-116
[54] = system: SF-539
[55] = system: U-251
[56] = system: XF498
[57] = system: NCI-H226
[58] = system: SR

SMILES: CCOC(=O)C(=O)CC(=O)C(Br)C(Br)c1ccc(Cl)cc1 (stereo not given)
- GI50 [1]: 17.6 µM (inactive)
- GI50 [2]: 16.3 µM (inactive)
- GI50 [3]: 21.8 µM (inactive)
- GI50 [4]: 57.4 µM (inactive)
- GI50 [5]: > 100 µM (inactive)
- GI50 [6]: > 100 µM (inactive)
- GI50 [7]: 18.6 µM (inactive)
- GI50 [8]: > 100 µM (inactive)
- GI50 [9]: 34.9 µM (inactive)
- GI50 [10]: 70.5 µM (inactive)
- GI50 [11]: 23.3 µM (inactive)
- GI50 [12]: 30.3 µM (inactive)
- GI50 [13]: > 100 µM (inactive)
- GI50 [14]: 22.3 µM (inactive)
- GI50 [15]: 30.4 µM (inactive)
- GI50 [16]: 34.1 µM (inactive)
- GI50 [17]: 36 µM (inactive)
- GI50 [18]: 57.9 µM (inactive)
- GI50 [19]: 29.5 µM (inactive)
- GI50 [20]: > 100 µM (inactive)
- GI50 [21]: 39.6 µM (inactive)
- GI50 [22]: 44.2 µM (inactive)
- GI50 [23]: 18.3 µM (inactive)
- GI50 [24]: 46 µM (inactive)
- GI50 [25]: > 100 µM (inactive)
- GI50 [26]: 23.2 µM (inactive)
- GI50 [27]: 33.5 µM
- GI50 [28]: 43 µM (inactive)
- GI50 [29]: 30.5 µM (inactive)
- GI50 [30]: > 100 µM (inactive)
- GI50 [31]: 31.8 µM (inactive)
- GI50 [32]: 40.7 µM (inactive)
- GI50 [33]: 65.9 µM (inactive)
- GI50 [34]: 8.36 µM (inactive)
- GI50 [35]: 21.7 µM (inactive)
- GI50 [36]: > 100 µM (inactive)
- GI50 [37]: 17.5 µM (inactive)
- GI50 [38]: 17.2 µM (inactive)
- GI50 [39]: > 100 µM (inactive)
- GI50 [40]: 29.7 µM (inactive)
- GI50 [41]: 24.6 µM (inactive)
- GI50 [42]: > 100 µM (inactive)
- GI50 [43]: 23.6 µM (inactive)
- GI50 [44]: 52.2 µM (inactive)
- GI50 [45]: 29.2 µM (inactive)
- GI50 [46]: 42.5 µM (inactive)
- GI50 [47]: > 100 µM (inactive)
- GI50 [48]: 23.3 µM (inactive)
- GI50 [49]: > 100 µM (inactive)
- GI50 [50]: 26.4 µM (inactive)
- GI50 [51]: > 100 µM (inactive)

SMILES: CCc1c(C)[nH]c2c1/C(=N/N=C1\CCCc3[nH]c(C)c(CC)c31)CCC2
- GI50 [1]: 16.7 µM (inactive)
- GI50 [2]: 13.8 µM (inactive)
- GI50 [3]: 20.7 µM (inactive)
- GI50 [4]: 14.2 µM (inactive)
- GI50 [5]: 22.5 µM (inactive)
- GI50 [6]: 33 µM (inactive)
- GI50 [7]: 27.4 µM (inactive)
- GI50 [8]: > 100 µM (inactive)
- GI50 [52]: 25.6 µM (inactive)
- GI50 [9]: 25.8 µM (inactive)
- GI50 [10]: 17.4 µM (inactive)
- GI50 [11]: 14.5 µM (inactive)
- GI50 [12]: 29.2 µM (inactive)
- GI50 [53]: 16.9 µM (inactive)
- GI50 [13]: 25.6 µM (inactive)
- GI50 [14]: 7.67 µM (inactive)
- GI50 [15]: 22.6 µM (inactive)
- GI50 [16]: 19.3 µM (inactive)
- GI50 [17]: 18.6 µM (inactive)
- GI50 [18]: 15.7 µM (inactive)
- GI50 [19]: 17.5 µM (inactive)
- GI50 [20]: 14.5 µM (inactive)
- GI50 [54]: 28.2 µM (inactive)
- GI50 [21]: 28.5 µM (inactive)
- GI50 [22]: 27.4 µM (inactive)
- GI50 [23]: > 100 µM (inactive)
- GI50 [24]: 18.5 µM (inactive)
- GI50 [25]: > 100 µM (inactive)
- GI50 [55]: 17 µM (inactive)
- GI50 [26]: 20.6 µM (inactive)
- GI50 [27]: 19.4 µM
- GI50 [28]: 14.1 µM (inactive)
- GI50 [29]: 18.5 µM (inactive)
- GI50 [30]: > 100 µM (inactive)
- GI50 [31]: > 100 µM (inactive)
- GI50 [32]: 29.4 µM (inactive)
- GI50 [33]: 18.1 µM (inactive)
- GI50 [34]: 19.2 µM (inactive)
- GI50 [35]: 12.8 µM (inactive)
- GI50 [36]: 18 µM (inactive)
- GI50 [37]: > 100 µM (inactive)
- GI50 [38]: 11.9 µM (inactive)
- GI50 [39]: 20.8 µM (inactive)
- GI50 [40]: 16.7 µM (inactive)
- GI50 [41]: 14.5 µM (inactive)
- GI50 [42]: 27.9 µM (inactive)
- GI50 [43]: 14.3 µM (inactive)
- GI50 [56]: 18.2 µM (inactive)
- GI50 [44]: 49.1 µM (inactive)
- GI50 [45]: 20.9 µM (inactive)
- GI50 [46]: 20 µM (inactive)
- GI50 [47]: 20.1 µM (inactive)
- GI50 [57]: 17.6 µM (inactive)
- GI50 [48]: 17.9 µM (inactive)
- GI50 [49]: 30.8 µM (inactive)
- GI50 [50]: 41.4 µM (inactive)
- GI50 [51]: 27 µM (inactive)

SMILES: O=C(CC1C(=O)Nc2ccccc2S1(=O)=O)Nc1cc(Cl)ccc1Cl (stereo not given)
- GI50 [1]: 13.9 µM (inactive)
- GI50 [2]: 14.1 µM (inactive)
- GI50 [3]: 14.3 µM (inactive)
- GI50 [4]: 13.5 µM (inactive)
- GI50 [5]: 28.4 µM (inactive)
- GI50 [6]: 10.6 µM (inactive)
- GI50 [7]: 17.4 µM (inactive)
- GI50 [8]: 20.5 µM (inactive)
- GI50 [52]: 15.8 µM (inactive)
- GI50 [9]: 17.5 µM (inactive)
- GI50 [11]: 14.6 µM (inactive)
- GI50 [12]: 15.6 µM (inactive)
- GI50 [53]: 14.4 µM (inactive)
- GI50 [58]: 7.16 µM (inactive)
- GI50 [13]: 24.4 µM (inactive)
- GI50 [14]: 2.87 µM (inactive)
- GI50 [15]: 15.8 µM (inactive)
- GI50 [16]: 10.8 µM (inactive)
- GI50 [17]: 17.2 µM (inactive)
- GI50 [19]: 35.2 µM (inactive)
- GI50 [20]: 15.6 µM (inactive)
- GI50 [54]: 2.4 µM (inactive)
- GI50 [21]: 19.4 µM (inactive)
- GI50 [22]: 12.7 µM (inactive)
- GI50 [23]: 15 µM (inactive)
- GI50 [24]: 14.6 µM (inactive)
- GI50 [55]: 10 µM (inactive)
- GI50 [26]: 16.2 µM (inactive)
- GI50 [27]: 11.5 µM
- GI50 [28]: 12.5 µM (inactive)
- GI50 [29]: 17.9 µM (inactive)
- GI50 [30]: 14.9 µM (inactive)
- GI50 [31]: 17.9 µM (inactive)
- GI50 [32]: 16.1 µM (inactive)
- GI50 [33]: 16.8 µM (inactive)
- GI50 [34]: 17.8 µM (inactive)
- GI50 [35]: 6.01 µM (inactive)
- GI50 [36]: 13.6 µM (inactive)
- GI50 [37]: 8.55 µM (inactive)
- GI50 [38]: 11.8 µM (inactive)
- GI50 [39]: 14.6 µM (inactive)
- GI50 [40]: 16.6 µM (inactive)
- GI50 [41]: 14.2 µM (inactive)
- GI50 [42]: 16.7 µM (inactive)
- GI50 [56]: 14.1 µM (inactive)
- GI50 [44]: 20.1 µM (inactive)
- GI50 [45]: 5.37 µM (inactive)
- GI50 [46]: 13.1 µM (inactive)
- GI50 [47]: 17.5 µM (inactive)
- GI50 [57]: 14.8 µM (inactive)
- GI50 [50]: 15.5 µM (inactive)
- GI50 [51]: 15.6 µM (inactive)
